Legend:
in vivo = assay: in vivo; parameters: species or system Wistar Han rats; details: both sexes, Wistar Han, rat, po, 500 mg/kg
Experimental: Twenty-nine male and 29 female Wistar Han rats were assigned to 7 groups (4 main and 3 toxicokinetic (TK) groups), with 5 rats/sex/group in the main groups and […] in TK groups. Dose formulations were administered twice daily by oral gavage at 100, 300, and 1,000 mg/kg/day (50, 150, and 500 mg/kg/dose) for 14 consecutive days, with a vehicle control group dosed in the same manner. Toxicity was assessed based on clinical signs, daily body weights, food consumption, organ weights, clinical, gross, and anatomic pathology.

[1] = tested on: oxaliplatin-induced mechanical allodynia; assay: Prevention of OIPN, paw withdrawal threshold; type: in vivo, male Sprague Dawley rats
Experimental: (§1) Male Sprague Dawley rats (150–210 g) were housed in groups of 4 in intra-ventilated Perspex home cages. Humidity, temperature (21 ± 1 °C), and lighting (light-dark cycle of 12:12 hours) were controlled and maintained in the home cages, with food and water available ad libitum. Rats acclimatised to the home cages for at least 1 week. All experiments were carried out according to the Animals (Scientific Procedures) Act, 1986 (U.K. Government Home Office). The study was performed under the Home Office project licence number PP0847012. OIPN was established with a single dose of OXA (10 mg/kg, IP).
Pain measurements were made on Days 5/6 (when neuropathy has normally developed) and at the end of the study. […] Terminal plasma samples were taken for bioanalysis and proteomics (Somalogic). Brain regions involved in pain processing, that is, prefrontal cortex (PFC), periaqueductal grey (PAG), whole spinal cords (SC), and L4-L6 dorsal root ganglia, were collected for lipidomic and genomic (Genewiz, China) analyses.
Tactile allodynia (primary outcome measure) was assessed using paw withdrawal threshold (PWT), a measure of pain sensitivity. PWT was evaluated using calibrated von-Frey monofilaments (Touch-Test Sensory Evaluator; Scientific Marketing Associates) applied to the plantar surface of the left hind paw. PWT was determined by increasing and decreasing stimulus intensity and estimated using Dixon’s up-down method.[38],[39]
To acquire baseline readings, pain behaviour was assessed on 3 consecutive days (Days −3, −2, −1). The mean of Day −2 and Day −1 was considered the healthy baseline (HBL) prior to OIPN induction. On Days 5 and 6 after OXA injection, thresholds were reassessed. The mean of Days 5 and 6 was considered the neuropathic baseline (NPB). Animals were then ranked and randomised (based on a Latin square design) to treatment groups according to the percentage change of the mean thresholds observed in the NPB compared to the HBL. NPB expressed as a percentage change from HBL was calculated as follows (HBL-NPB)/HBL*100. All behavioural assessment was done by an experimenter blinded to the identity of the treatment. Separate people were responsible for dosing and assessment/data analysis.

[2] = tested on: PAG, DRG and PFC transcriptomes; assay: Transcriptomic analysis (RNA-seq) of terminal tissues, OIPN prevention study; type: in vivo, male Sprague Dawley rats
From the text: Pain measurements were made on Days 5/6 (when neuropathy has normally developed) and at the end of the study. […] Terminal plasma samples were taken for bioanalysis and proteomics (Somalogic). Brain regions involved in pain processing, that is, prefrontal cortex (PFC), periaqueductal grey (PAG), whole spinal cords (SC), and L4-L6 dorsal root ganglia, were collected for lipidomic and genomic (Genewiz, China) analyses. Sequencing (Illumnia NovoSeq) was done at Genewiz (Shanghai, China). Sequence reads were trimmed using Trimmomatic (v.0.36). Reads were then aligned to the R. norvegicus Rnor6.0 reference genome (https://www.ncbi.nlm.nih.gov/assembly/GCF_000001895.5/) using the STAR aligner (v.2.5.2b) and unique gene hit counts were calculated using featureCounts from the Subread package (v.1.5.2). Differentially expressed genes were determined using limma 3.46.0. […] Visualisation was done using the EnhancedVolcano (1.7.10) package in R. Gene set enrichment analysis was carried out using the gprofiler2 package in R.

[3] = tested on: paclitaxel-induced peripheral neuropathy; details: male and female rats, similar efficacy; cited from earlier work
[4] = Plasma concentration in PKPD time course (established OIPN); type: in vivo, male Sprague Dawley rats; details: OIPN rats, single 100 mg/kg PO
Experimental: The doses were based on previous studies that used these antagonists in animal models of CIPN.[33]–[37]
Quantitative bioanalysis by LC-MS/MS of plasma and spinal cord levels of ART26.12 was carried out by a commercial supplier (Sygnature Discovery, Nottingham, UK).

[5] = tested on: oxaliplatin-induced thermal hyperalgesia; assay: 7-day treatment of established OIPN, cold plate latency; type: in vivo, male Sprague Dawley rats; details: 7 days dosing, vehicle close to HBL by Day 14
Experimental: Male Sprague Dawley rats (150–210 g) were housed in groups of 4 in intra-ventilated Perspex home cages. Humidity, temperature (21 ± 1 °C), and lighting (light-dark cycle of 12:12 hours) were controlled and maintained in the home cages, with food and water available ad libitum. Rats acclimatised to the home cages for at least 1 week. All experiments were carried out according to the Animals (Scientific Procedures) Act, 1986 (U.K. Government Home Office). The study was performed under the Home Office project licence number PP0847012. OIPN was established with a single dose of OXA (10 mg/kg, IP). […] Body weight was monitored throughout the study, and terminal plasma and whole brain samples were taken for bioanalysis. Thermal hyperalgesia was assessed using a cold plate (Bioseb, France) set at a fixed temperature of 15 °C. Latency to the first escape behaviour from the plate was measured indicating discomfort to the thermal stimulation. Escape behaviours typically consist of paw licking, jumping, or withdrawal. The maximal threshold of latency was set at 150 seconds. To acquire baseline readings, pain behaviour was assessed on 3 consecutive days (Days −3, −2, −1). The mean of Day −2 and Day −1 was considered the healthy baseline (HBL) prior to OIPN induction. […] NPB expressed as a percentage change from HBL was calculated as follows (HBL-NPB)/HBL*100. […]

[6] = tested on: oxaliplatin-induced thermal hyperalgesia; assay: Prevention of OIPN, cold plate latency; type: in vivo, male Sprague Dawley rats; details: 25 mg/kg BID, P < .001
Experimental: as §1
Pain measurements were made on Days 5/6 (when neuropathy has normally developed) and at the end of the study. […] Terminal plasma samples were taken for bioanalysis and proteomics (Somalogic). […]
Thermal hyperalgesia was assessed using a cold plate (Bioseb, France) set at a fixed temperature of 15 °C. Latency to the first escape behaviour from the plate was measured indicating discomfort to the thermal stimulation. […]
To acquire baseline readings, pain behaviour was assessed on 3 consecutive days (Days −3, −2, −1). […] NPB expressed as a percentage change from HBL was calculated as follows (HBL-NPB)/HBL*100. […]

Structure (SMILES): COc1ccccc1[C@@H]1[C@H](C(=O)O)[C@@H](c2ccccc2OC)[C@H]1C(=O)OC1Cc2ccccc2C1 [ART26.12, (+)–3-Indan-2-yloxycarbonyl-2,4-bis(2-methoxyphenyl)cyclobutanecarboxylic acid]
- NOAEL at 14 days (in vivo): 1000 mg/kg/day
- PWT on Day 5/6 compared to HBL ([1]; 10 mg/kg BID, P < .001): significantly lower PWTs
- PWT on Day 5/6 compared to HBL ([1]; 25 mg/kg BID, P < .05): significantly lower PWTs
- PWT on Day 14 compared to HBL ([1]; ART26.12 10 or 25 mg/kg BID groups): neither the ART26.12 nor the pregabalin groups showed significant allodynia
- transcriptomic changes in PFC [2]: No significant changes
- transcriptomic changes in DRG ([2]; P < .05, FC > 1.5): only glycine decarboxylase being significantly upregulated
- number of significantly different genes in PAG ([2]; P < .05, log2FC > .58): 20 genes
- effect on paclitaxel-induced peripheral neuropathy [3]: prevents paclitaxel-induced peripheral neuropathy
- peak total plasma concentration ([4]; mean ± SEM): 122 ± 13 µM
- Tmax ([4]; male, Sprague Dawley, rat, plasma, read-out: time of peak plasma concentration): ~3 h
- cold plate latency [5]: no effect on cold plate latency
- cold plate latencies on Day 14 versus vehicle [6]: significantly higher cold plate latencies than the vehicle group

Source: article PMC12993615 (The journal of pain, 2024)
